Measured values as given in US12540129B2, “KIF18A inhibitors” (AMGEN INC., priority 2019, dated 2026).

Molecular target: T1, Recombinant human KIF18A (1-467 His-tagged) protein (Homo sapiens, UniProt Q8NI77)
T1 construct: Recombinant human KIF18A (1-467 His-tagged) protein; His; made in house
Assay: KIF18A Enzyme Assay: microtubule-stimulated ATPase activity (ADP-Glo)
Format: biochemical
Details: 30 nM KIF18A, 75 μM ATP
Text: KIF18A Enzyme Assay: Microtubule-stimulated ATPase activity assay is used to measure KIF18A enzyme activity after treatment with compound. Compounds were 2-fold serially diluted in DMSO (Sigma Inc) over 22-point concentration range. Recombinant human KIF18A (1-467 His-tagged) protein was expressed using a baculovirus system and purified by affinity chromatography by Amgen Inc. Concentrations of KIF18A protein, microtubules (MT), and ATP in the reaction were optimized for standardized homogenous enzyme assay using ADP-Glorm Kinase/ATPase Assay Kit (Promega Inc). The assay measures ADP formed from the ATPase reaction. […] Read luminescence using EnVision microplate reader with ultra-luminescence module (Perkin Elmer Inc). Concentration-response curve-fitting and IC50 determination was performed using Genedata Screener Software (Standard 15.0.1, Genedata Inc) with a four-parameter logistic regression fit model.
Table A provides data for compounds exemplified in the present application and priority document thereof, as representative compounds of the present invention, as follows: chemical name (as named by either ACD software or ChemDraw (Professional 15.0)) and biological data (IC50 in μM). Ex. # refers to Example No.

T1 sequence (Q8NI77 1-467): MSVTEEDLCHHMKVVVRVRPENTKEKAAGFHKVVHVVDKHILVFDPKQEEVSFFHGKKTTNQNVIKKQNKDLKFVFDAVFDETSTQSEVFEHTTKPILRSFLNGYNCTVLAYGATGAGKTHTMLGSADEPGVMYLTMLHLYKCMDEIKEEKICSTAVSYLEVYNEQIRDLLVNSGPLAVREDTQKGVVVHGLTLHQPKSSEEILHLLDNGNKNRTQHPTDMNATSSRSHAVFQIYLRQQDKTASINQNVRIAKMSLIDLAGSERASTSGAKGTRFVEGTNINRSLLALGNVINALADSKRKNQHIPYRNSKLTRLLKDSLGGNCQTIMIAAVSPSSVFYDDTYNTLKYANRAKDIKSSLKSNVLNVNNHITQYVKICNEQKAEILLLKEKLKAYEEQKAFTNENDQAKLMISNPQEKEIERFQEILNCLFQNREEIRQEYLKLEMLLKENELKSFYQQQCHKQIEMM
T1 sequence (P02550 whole entry partner): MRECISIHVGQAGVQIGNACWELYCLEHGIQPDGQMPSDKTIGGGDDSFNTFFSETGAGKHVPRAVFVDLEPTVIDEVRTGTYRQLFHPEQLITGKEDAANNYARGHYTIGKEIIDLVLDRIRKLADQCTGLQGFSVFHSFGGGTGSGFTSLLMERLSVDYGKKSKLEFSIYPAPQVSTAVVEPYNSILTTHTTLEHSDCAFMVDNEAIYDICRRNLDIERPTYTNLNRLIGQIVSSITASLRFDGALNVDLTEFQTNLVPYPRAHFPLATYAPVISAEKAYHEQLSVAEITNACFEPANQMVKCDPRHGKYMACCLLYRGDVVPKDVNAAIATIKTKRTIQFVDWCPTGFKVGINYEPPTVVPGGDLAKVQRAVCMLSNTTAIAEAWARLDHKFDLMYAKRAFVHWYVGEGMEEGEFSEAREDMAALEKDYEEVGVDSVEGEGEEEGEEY
T1 sequence (P02554 whole entry partner): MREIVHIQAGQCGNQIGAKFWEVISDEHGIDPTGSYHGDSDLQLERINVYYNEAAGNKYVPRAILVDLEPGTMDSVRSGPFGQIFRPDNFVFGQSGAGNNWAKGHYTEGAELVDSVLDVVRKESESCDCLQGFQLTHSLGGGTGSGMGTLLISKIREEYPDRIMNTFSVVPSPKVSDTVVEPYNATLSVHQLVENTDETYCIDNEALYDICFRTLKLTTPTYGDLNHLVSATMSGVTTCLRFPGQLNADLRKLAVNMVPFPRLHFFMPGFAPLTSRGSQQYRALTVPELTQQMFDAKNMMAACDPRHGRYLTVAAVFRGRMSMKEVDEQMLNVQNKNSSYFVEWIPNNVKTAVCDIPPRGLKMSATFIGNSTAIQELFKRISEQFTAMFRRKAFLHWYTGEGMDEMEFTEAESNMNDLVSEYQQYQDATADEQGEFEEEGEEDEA

SMILES | IC50 [nM]
O=C(Nc1cccc(S(=O)(=O)N2CCC(F)(F)CC2)c1)c1cccnc1N1CCC2(CC1)CC2 [Example 100-7, N-(3-((4,4-difluoropiperidin-1-yl)sulfonyl)phenyl)-2-(6-azaspiro[2.5]octan-6-yl)nicotinamide] | 104
CC(C)(C)NS(=O)(=O)c1cccc(NC(=O)c2ccc(N[C@H]3COC[C@@H]3O)nc2N2CCC3(CC2)CC3)c1 [Example 102-20, N-(3-(N-(tert-butyl)sulfamoyl)phenyl)-6-(((3S,4R)-4-hydroxytetrahydrofuran-3-yl)amino)-2-(6-azaspiro[2.5]octan-6-yl)nicotinamide] | 103
CC(C)(C)NS(=O)(=O)c1cccc(NC(=O)c2cccnc2N2CCC3(CC2)CC3)c1 [Example 100-12, N-(3-(N-(tert-butyl)sulfamoyl)phenyl)-2-(6-azaspiro[2.5]octan-6-yl)nicotinamide] | 175
CC(C)(C)NS(=O)(=O)c1cccc(NC(=O)c2ccc(N3CCC(F)(F)C3)nc2N2CCC3(CC2)CC3)c1 [Example 102-2, N-(3-(N-(tert-butyl)sulfamoyl)phenyl)-6-(3,3-difluoropyrrolidin-1-yl)-2-(6-azaspiro[2.5]octan-6-yl)nicotinamide] | 302
COCCNc1ccc(C(=O)Nc2cccc(S(=O)(=O)C3CCCC3)c2)c(N2CCC3(CC2)CC3)n1 [Example 103-1, N-(3-(cyclopentylsulfonyl)phenyl)-6-((2-methoxyethyl)amino)-2-(6-azaspiro[2.5]octan-6-yl)nicotinamide] | 60
CC(C)(CO)Nc1ccc(C(=O)Nc2cccc(S(=O)(=O)C3(C)CCC3)c2)c(N2CCC3(CC2)CC3)n1 [Example 105-1, 6-((1-hydroxy-2-methylpropan-2-yl)amino)-N-(3-((1-methylcyclobutyl)sulfonyl)phenyl)-2-(6-azaspiro[2.5]octan-6-yl)nicotinamide] | 77
COc1ccc(NC(=O)c2ccc(NC(C)(C)CO)nc2N2CCC3(CC2)CC3)cc1S(=O)(=O)NC(C)(C)C [Example 105-20, N-(3-(N-(tert-butyl)sulfamoyl)-4-methoxyphenyl)-6-((1-hydroxy-2-methylpropan-2-yl)amino)-2-(6-azaspiro[2.5]octan-6-yl)nicotinamide] | 162
CC(C)(C)NS(=O)(=O)c1cccc(NC(=O)c2ccc(N3CCOCC3)nc2N2CCC3(CC2)CC3)c1 [Example 102-7, N-(3-(N-(tert-butyl)sulfamoyl)phenyl)-6-morpholino-2-(6-azaspiro[2.5]octan-6-yl)nicotinamide] | 238
Cc1ccc(NC(=O)c2ccncc2N2CCC3(CC2)CC3)cc1C(=O)N1CCC(F)(F)CC1 [Example 115-4, N-(3-(4,4-difluoropiperidine-1-carbonyl)-4-methylphenyl)-3-(6-azaspiro[2.5]octan-6-yl)isonicotinamide] | 1540
O=C(Nc1cccc(C(=O)N2CCCC(F)(F)C2)c1)c1ccncc1N1CCC2(CC1)CC2 [Example 115-5, N-(3-(3,3-difluoropiperidine-1-carbonyl)phenyl)-3-(6-azaspiro[2.5]octan-6-yl)isonicotinamide] | 1680
O=C(Nc1cccc(S(=O)(=O)NC2CCCCC2)c1)c1cccnc1N1CCC2(CC1)CC2 [Example 101-4, N-(3-(N-cyclohexylsulfamoyl)phenyl)-2-(6-azaspiro[2.5]octan-6-yl)nicotinamide] | 918
O=C(Nc1cccc(S(=O)(=O)C2CCCC2)c1)c1ccc(NCC2(O)CCC2)nc1N1CCC2(CC1)CC2 [Example 103-17, N-(3-(cyclopentylsulfonyl)phenyl)-6-(((1-hydroxycyclobutyl)methyl)amino)-2-(6-azaspiro[2.5]octan-6-yl)nicotinamide] | 168
O=C(Nc1cccc(S(=O)(=O)N2CCCCC2)c1)c1cccnc1N1CCC2(CC1)CC2 [Example 100-1, N-(3-(piperidin-1-ylsulfonyl)phenyl)-2-(6-azaspiro[2.5]octan-6-yl)nicotinamide] | 342
O=C(Nc1cccc(S(=O)(=O)C2CCCC2)c1)c1cccnc1N1CCC2(CCC2)CC1 [Example 100-18, N-(3-(cyclopentylsulfonyl)phenyl)-2-(7-azaspiro[3.5]nonan-7-yl)nicotinamide] | 134
CC1(C)CCN(c2ccc(C(=O)Nc3cccc(S(=O)(=O)NC(C)(C)C)c3)c(N3CCC4(CC3)CC4)n2)C1 [Example 102-1, N-(3-(N-(tert-butyl)sulfamoyl)phenyl)-6-(3,3-dimethylpyrrolidin-1-yl)-2-(6-azaspiro[2.5]octan-6-yl)nicotinamide] | 196
O=C(Nc1cccc(S(=O)(=O)C2CCCC2)c1)c1ccc(N[C@@H]2CCOC2)nc1N1CCC2(CC1)CC2 [Example 103-15, (R)-N-(3-(cyclopentylsulfonyl)phenyl)-2-(6-azaspiro[2.5]octan-6-yl)-6-((tetrahydrofuran-3-yl)amino)nicotinamide] | 51

SMILES | IC50 [nM]
Cc1coc(-c2cccc(NC(=O)c3ccc(NC(C)(C)CO)nc3N3CCC4(CC3)CC4)c2)n1 [Example 111-5, 6-((1-hydroxy-2-methylpropan-2-yl)amino)-N-(3-(4-methyloxazol-2-yl)phenyl)-2-(6-azaspiro[2.5]octan-6-yl)nicotinamide] | 225
CC(C)(C)NS(=O)(=O)c1cccc(NC(=O)c2ccc(N3CC[C@H]4CC[C@@H]3O4)nc2N2CCC3(CC2)CC3)c1 [Example 102-9, 6-((1S,5R)-8-oxa-2-azabicyclo[3.2.1]octan-2-yl)-N-(3-(N-(tert-butyl)sulfamoyl)phenyl)-2-(6-azaspiro[2.5]octan-6-yl)nicotinamide] | 127
Cc1ccc(NC(=O)c2ccc(NC(C)(C)CO)nc2N2CCC3(CC2)CC3)cc1-c1nccs1 [Example 111-4, 6-((1-hydroxy-2-methylpropan-2-yl)amino)-N-(4-methyl-3-(thiazol-2-yl)phenyl)-2-(6-azaspiro[2.5]octan-6-yl)nicotinamide] | 349
O=C(Nc1cccc(S(=O)(=O)NC2CC(F)(F)C2)c1)c1cccnc1N1CCC2(CC1)CC2 [Example 101-9, N-(3-(N-(3,3-difluorocyclobutyl)sulfamoyl)phenyl)-2-(6-azaspiro[2.5]octan-6-yl)nicotinamide] | 474
O=C(Nc1ccc(Cl)c(C(=O)N2CCCC(F)(F)C2)c1)c1ccncc1N1CCC2(CC1)CC2 [Example 115-2, N-(4-chloro-3-(3,3-difluoropiperidine-1-carbonyl)phenyl)-3-(6-azaspiro[2.5]octan-6-yl)isonicotinamide] | 735
CC(C)(CO)Nc1ccc(C(=O)Nc2cccc(N3CCOCC3)c2)c(N2CCC3(CC2)CC3)n1 [Example 105-27, 6-((1-hydroxy-2-methylpropan-2-yl)amino)-N-(3-morpholinophenyl)-2-(6-azaspiro[2.5]octan-6-yl)nicotinamide] | 262
O=C(Nc1cccc(S(=O)(=O)Nc2ccc(F)cc2)c1)c1cccnc1N1CCC2(CC1)CC2 [Example 101-10, N-(3-(N-(4-fluorophenyl)sulfamoyl)phenyl)-2-(6-azaspiro[2.5]octan-6-yl)nicotinamide] | 393
CCC1(C)CCN(c2ncccc2C(=O)Nc2cccc(S(=O)(=O)C3CCCC3)c2)CC1 [Example 100-16, N-(3-(cyclopentylsulfonyl)phenyl)-2-(4-ethyl-4-methylpiperidin-1-yl)nicotinamide] | 1010
O=C(Nc1cccc(S(=O)(=O)C2CCCC2)c1)c1cccnc1N1CCC2(CC1)CC(F)(F)C2 [Example 100-19, N-(3-(cyclopentylsulfonyl)phenyl)-2-(2,2-difluoro-7-azaspiro[3.5]nonan-7-yl)nicotinamide] | 734
Cc1ccc(NC(=O)c2ccc(NC(C)(C)CO)nc2N2CCC3(CC2)CC3)cc1-c1ccoc1 [Example 111-1, N-(3-(furan-3-yl)-4-methylphenyl)-6-((1-hydroxy-2-methylpropan-2-yl)amino)-2-(6-azaspiro[2.5]octan-6-yl)nicotinamide] | 265
CC(C)(C)NC(=O)c1cccc(NC(=O)c2ccc(NC(C)(C)CO)nc2N2CCC3(CC2)CC3)c1 [Example 105-25, N-(3-(tert-butylcarbamoyl)phenyl)-6-((1-hydroxy-2-methylpropan-2-yl)amino)-2-(6-azaspiro[2.5]octan-6-yl)nicotinamide] | 314
CC(C)(C)NS(=O)(=O)c1cccc(NC(=O)c2ccc([C@](C)(O)C(F)(F)F)nc2N2CCC3(CC2)CC3)c1 (single isomer, unassigned) [Example 107-1] | 70
O=C(Nc1cccc(S(=O)(=O)N2CCC(F)CC2)c1)c1cccnc1N1CCC2(CCC2)CC1 [Example 100-5, N-(3-((4-fluoropiperidin-1-yl)sulfonyl)phenyl)-2-(7-azaspiro[3.5]nonan-7-yl)nicotinamide] | 160
CC(C)(C)NS(=O)(=O)c1cccc(NC(=O)c2ccc(N3CC[C@@H]4C[C@@H]43)nc2N2CCC3(CC2)CC3)c1 [Example 102-6, 6-((1S,5R)-2-azabicyclo[3.1.0]hexan-2-yl)-N-(3-(N-(tert-butyl)sulfamoyl)phenyl)-2-(6-azaspiro[2.5]octan-6-yl)nicotinamide] | 200
CC(C)(CCO)Nc1ccc(C(=O)Nc2cccc(S(=O)(=O)C3CCCC3)c2)c(N2CCC3(CC2)CC3)n1 [Example 103-7, N-(3-(cyclopentylsulfonyl)phenyl)-6-((4-hydroxy-2-methylbutan-2-yl)amino)-2-(6-azaspiro[2.5]octan-6-yl)nicotinamide] | 47
